From ChEMBL document CHEMBL1201862, “PubChem BioAssay data set” (2004)
Where a name gives a salt, the structure may show the parent alone. Active and inactive are the calls of the source.

Columns and labels:
Insulin-degrading enzyme = molecular target: T1, Insulin-degrading enzyme (Homo sapiens, UniProt P14735); assay: Dose Response: Fluorescence polarization-based cell-based high throughput dose response assay for inhibitors of insulin-degrading enzyme (IDE). [Related pubchem assays: 434962 (Primary screen (IDE inhibitors in singlicate)), 449730 (Counterscreen (Cytotoxicity in triplicate)), 435028 (Confirmation (IDE inhibitors in triplicate)), 434984 (Summary …; type: functional
T1 sequence (P14735 whole entry): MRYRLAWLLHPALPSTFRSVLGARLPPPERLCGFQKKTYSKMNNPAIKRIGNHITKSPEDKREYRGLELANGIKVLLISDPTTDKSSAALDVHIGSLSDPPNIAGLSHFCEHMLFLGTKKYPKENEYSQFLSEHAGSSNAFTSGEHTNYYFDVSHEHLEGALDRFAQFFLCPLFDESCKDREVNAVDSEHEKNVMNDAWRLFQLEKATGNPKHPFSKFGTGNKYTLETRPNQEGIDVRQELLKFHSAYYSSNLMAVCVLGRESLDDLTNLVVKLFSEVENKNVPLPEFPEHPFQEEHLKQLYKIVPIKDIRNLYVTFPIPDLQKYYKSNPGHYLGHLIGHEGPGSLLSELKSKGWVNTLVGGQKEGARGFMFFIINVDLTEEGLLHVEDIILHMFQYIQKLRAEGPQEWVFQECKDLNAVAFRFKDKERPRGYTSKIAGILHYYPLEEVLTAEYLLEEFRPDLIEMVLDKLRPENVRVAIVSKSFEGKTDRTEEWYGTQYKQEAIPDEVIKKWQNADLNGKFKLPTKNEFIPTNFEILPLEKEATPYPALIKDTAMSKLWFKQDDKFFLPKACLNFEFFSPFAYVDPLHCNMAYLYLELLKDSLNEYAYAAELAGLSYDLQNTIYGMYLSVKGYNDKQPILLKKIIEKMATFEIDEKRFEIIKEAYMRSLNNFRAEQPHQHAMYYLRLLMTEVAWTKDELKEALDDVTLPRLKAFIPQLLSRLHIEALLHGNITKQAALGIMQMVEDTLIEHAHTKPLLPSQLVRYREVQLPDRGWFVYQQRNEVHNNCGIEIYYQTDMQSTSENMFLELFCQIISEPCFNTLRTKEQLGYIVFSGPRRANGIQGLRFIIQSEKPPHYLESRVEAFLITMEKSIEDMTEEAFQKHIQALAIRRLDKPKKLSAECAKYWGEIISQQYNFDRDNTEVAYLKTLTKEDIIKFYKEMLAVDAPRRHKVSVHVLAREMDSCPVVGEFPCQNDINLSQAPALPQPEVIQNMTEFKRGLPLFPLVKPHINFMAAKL

[1] = HEp-2 cell cytotoxicity, dose response, cytotoxicity control for RSV inhibitor project, HTS (AID 2410); type: functional; conditions: human respiratory syncytial virus
[2] = Counterscreen for IDE inhibitors: Luminescence-based cell-based high throughput dose response assay to identify compounds that are cytotoxic to HEK cells. [Related pubchem assays: 434962 (Primary screen (IDE inhibitors in singlicate)), 449730 (Counterscreen (Cytotoxicity in triplicate)), 435028 (Confirmation (IDE inhibitors in triplicate)) …; type: functional; conditions: HEK293
[3] = molecular target: Neuropeptide Y receptor type 1 (Homo sapiens, UniProt P25929); type: functional;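 also: HEK293 cells with a CNG channel challenged with NPY then isoproterenol; potency as antagonist that reverses NPY suppression of cAMP signal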
[4] = molecular target: Neuropeptide Y receptor type 2 (Homo sapiens, UniProt P49146); type: functional, cell-based;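 also: HEK293 cells expressing the receptor and a CNG channel; stimulus was NPY near EC95 followed by isoproterenol to raise cAMP; antagonist potency measured as restoring cAMP signal that NPY suppresses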
Nonstructural protein 1 = Nonstructural protein 1 (Influenza A virus, UniProt Q194T2); type: functional, Influenza A virus (A/California/07/2009(H1N1))
[5] = NIH-3T3 fibroblast cytotoxicity, dose response, cytotoxicity control, cell-based, fluorescence, Alamar Blue, secondary assay (AID 2327); type: functional;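 also: NIH-3T3 mouse fibroblasts cultured with fluconazole at 8 µg/mL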
[6] = Counterscreen for AddAB inhibitors: absorbance-based bacterial cell-based high throughput dose response assay for inhibitors of bacterial viability. [Related pubchem assays (depositor defined):AID435030, AID449728, AID449731, AID488942, AID488955, AID488956]; type: functional
[7] = inhibitors of SNCA 5'UTR-driven reporter translation, confirmation, H4 neuroglioma cells, luminescence (AID 1988); type: functional, cell-based
[8] = inhibitors of firefly luciferase expression or activity, dose response, H4 neuroglioma cells, luminescence (AID 1990); type: functional, cell-based
[9] = molecular target: Heat shock protein HSP 90-alpha (Homo sapiens, UniProt P07900); type: functional, organism-based
BJ [10] = assay: cytotoxicity toward BJ-TERT-LT-ST fibroblasts, dose response, cell-based, RAS-independent, luminescence (AID 1935); type: functional; conditions: Homo sapiens;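 also: BJ fibroblasts immortalized with TERT plus LT and ST oncogenes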
Exodeoxyribonuclease V = molecular target: T2, Exodeoxyribonuclease V (Escherichia coli (strain K12), UniProt P04993+P07648+P08394); assay: E. coli RecBCD inhibitors, dose response, counter-screen for AddAB inhibitor project, absorbance, V66 E. coli, mutant T4 phage (AID 492957); type: functional, cell-based, Escherichia coli str. K-12 substr. MG1655
T2 sequence (P04993 whole entry): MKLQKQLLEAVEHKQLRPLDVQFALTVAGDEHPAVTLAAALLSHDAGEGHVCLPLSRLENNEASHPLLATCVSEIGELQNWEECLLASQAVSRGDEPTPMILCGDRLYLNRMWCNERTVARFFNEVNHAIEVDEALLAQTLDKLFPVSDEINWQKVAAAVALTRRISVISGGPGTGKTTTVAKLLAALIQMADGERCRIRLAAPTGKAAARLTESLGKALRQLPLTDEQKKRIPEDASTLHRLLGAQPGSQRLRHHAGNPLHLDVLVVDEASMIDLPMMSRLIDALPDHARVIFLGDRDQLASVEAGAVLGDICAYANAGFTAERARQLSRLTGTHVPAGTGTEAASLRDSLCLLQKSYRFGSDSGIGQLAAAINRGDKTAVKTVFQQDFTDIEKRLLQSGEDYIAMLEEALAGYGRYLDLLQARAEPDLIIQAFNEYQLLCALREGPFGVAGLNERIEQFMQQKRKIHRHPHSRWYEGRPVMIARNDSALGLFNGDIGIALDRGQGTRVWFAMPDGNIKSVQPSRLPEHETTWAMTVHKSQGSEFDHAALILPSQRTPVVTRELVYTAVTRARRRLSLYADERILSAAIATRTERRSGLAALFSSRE
T2 sequence (P07648 whole entry): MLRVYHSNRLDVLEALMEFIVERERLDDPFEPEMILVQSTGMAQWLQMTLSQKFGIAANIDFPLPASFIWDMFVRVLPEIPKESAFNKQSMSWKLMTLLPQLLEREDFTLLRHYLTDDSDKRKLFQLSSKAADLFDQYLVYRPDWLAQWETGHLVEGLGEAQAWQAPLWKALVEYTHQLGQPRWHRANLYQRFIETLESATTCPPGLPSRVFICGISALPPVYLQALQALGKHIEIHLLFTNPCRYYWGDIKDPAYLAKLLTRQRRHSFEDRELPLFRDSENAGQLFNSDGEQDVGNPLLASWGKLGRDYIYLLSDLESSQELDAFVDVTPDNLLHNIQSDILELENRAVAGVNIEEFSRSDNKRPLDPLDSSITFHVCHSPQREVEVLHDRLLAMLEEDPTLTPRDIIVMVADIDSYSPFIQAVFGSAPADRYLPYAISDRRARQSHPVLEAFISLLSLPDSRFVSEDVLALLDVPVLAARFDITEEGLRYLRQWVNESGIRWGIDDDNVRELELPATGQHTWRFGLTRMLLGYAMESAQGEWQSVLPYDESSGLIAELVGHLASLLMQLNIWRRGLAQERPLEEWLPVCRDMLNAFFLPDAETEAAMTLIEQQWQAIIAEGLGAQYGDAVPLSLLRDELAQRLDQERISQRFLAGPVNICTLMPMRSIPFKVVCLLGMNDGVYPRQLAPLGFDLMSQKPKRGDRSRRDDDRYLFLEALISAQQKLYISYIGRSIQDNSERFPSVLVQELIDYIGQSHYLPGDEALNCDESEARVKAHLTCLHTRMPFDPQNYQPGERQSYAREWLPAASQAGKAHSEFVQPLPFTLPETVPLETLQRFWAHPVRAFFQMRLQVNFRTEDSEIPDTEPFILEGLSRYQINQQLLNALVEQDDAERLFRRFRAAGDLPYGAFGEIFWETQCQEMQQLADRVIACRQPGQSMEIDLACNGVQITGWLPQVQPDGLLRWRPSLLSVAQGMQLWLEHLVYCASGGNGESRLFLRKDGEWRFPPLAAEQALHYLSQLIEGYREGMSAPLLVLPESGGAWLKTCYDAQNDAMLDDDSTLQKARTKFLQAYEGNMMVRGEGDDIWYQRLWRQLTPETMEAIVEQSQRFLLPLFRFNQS
T2 sequence (P08394 whole entry): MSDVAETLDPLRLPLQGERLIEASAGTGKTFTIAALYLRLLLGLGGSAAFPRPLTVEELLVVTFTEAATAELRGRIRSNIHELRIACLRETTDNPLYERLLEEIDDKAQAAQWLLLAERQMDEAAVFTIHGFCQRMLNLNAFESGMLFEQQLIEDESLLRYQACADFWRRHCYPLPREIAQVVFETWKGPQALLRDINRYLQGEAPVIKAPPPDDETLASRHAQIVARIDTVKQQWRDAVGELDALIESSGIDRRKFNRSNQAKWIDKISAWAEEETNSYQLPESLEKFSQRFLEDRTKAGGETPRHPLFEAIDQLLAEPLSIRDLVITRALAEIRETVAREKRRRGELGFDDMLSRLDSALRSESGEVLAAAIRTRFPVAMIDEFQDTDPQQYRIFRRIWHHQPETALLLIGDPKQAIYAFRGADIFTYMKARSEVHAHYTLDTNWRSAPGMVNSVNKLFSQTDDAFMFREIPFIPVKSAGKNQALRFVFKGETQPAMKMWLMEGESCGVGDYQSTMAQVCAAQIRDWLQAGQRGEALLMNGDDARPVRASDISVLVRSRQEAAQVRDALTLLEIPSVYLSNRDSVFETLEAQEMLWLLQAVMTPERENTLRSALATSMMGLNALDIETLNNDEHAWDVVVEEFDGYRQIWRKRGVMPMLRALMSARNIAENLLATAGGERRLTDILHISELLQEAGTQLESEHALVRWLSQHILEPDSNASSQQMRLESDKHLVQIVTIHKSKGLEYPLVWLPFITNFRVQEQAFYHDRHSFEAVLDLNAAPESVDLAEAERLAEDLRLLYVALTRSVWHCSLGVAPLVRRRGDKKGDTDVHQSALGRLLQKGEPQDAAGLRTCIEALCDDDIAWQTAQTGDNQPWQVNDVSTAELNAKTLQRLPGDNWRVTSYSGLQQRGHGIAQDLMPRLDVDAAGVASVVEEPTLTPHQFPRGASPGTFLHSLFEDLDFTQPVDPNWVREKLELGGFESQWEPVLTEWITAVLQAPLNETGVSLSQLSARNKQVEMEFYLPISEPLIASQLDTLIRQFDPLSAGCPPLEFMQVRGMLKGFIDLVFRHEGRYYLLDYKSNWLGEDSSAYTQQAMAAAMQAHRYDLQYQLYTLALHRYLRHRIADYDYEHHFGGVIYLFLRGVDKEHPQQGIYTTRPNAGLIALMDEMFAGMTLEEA

BJ [11] = assay: cytotoxicity toward Ras-transformed BJeLR fibroblasts, dose response, cell-based, alamar blue fluorescence, cherrypicked samples (AID 2631); type: functional; conditions: Homo sapiens;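 also: confirmatory dose-response assay in RAS-dependent BJ fibroblasts engineered with TERT, LT and ST, with cytotoxicity read by fluorescence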
BJ [12] = assay: cells; type: functional, cell-based; conditions: Homo sapiens
BJ [13] = assay: cytotoxicity toward BJ-TERT fibroblasts, dose response, cell-based, RAS-independent, luminescence (AID 1933); type: functional; conditions: Homo sapiens
Danio rerio = assay: In Vivo Angiogenesis Dose-Response Confirmation. [Related pubchem assays: 732 (Assay preceding this confirmatory assay.)]; type: functional, organism-based
[14] = Luminescence Cell-Based Dose Response HTS to Identify Inhibitors of 5'UTR Stem-Loop Driven Prion Protein mRNA Translation in H4 Neuroglioblastoma Cells. [Related pubchem assays: 1827 (Project Summary), 1813 (Primary HTS)]; type: functional
[15] = cytotoxicity toward DRD oncogenic fibroblasts, dose response, cell-based, non-viral oncogenic, luminescence (AID 1934); type: functional; conditions: Homo sapiens
Galanin receptor type 2 = Galanin receptor type 2 (Homo sapiens, UniProt O43603); assay: Dose Response cell-based high-throughput screening assay to identify antagonists of galanin receptor 2 (GALR2). [Related pubchem assays: 828, 866 ]; type: functional
Galanin receptor type 2, sequence (O43603 whole entry): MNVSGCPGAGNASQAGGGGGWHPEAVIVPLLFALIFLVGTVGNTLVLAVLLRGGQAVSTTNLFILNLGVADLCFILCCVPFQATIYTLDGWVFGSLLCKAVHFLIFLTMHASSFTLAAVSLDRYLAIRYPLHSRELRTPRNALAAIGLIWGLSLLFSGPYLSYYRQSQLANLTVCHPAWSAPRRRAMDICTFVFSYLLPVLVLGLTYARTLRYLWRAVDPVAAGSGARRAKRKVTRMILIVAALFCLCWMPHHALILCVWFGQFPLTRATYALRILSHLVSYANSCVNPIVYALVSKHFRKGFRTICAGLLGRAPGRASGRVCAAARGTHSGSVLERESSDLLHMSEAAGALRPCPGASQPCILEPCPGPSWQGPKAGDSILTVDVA

Nonstructural protein 1, sequence (Q194T2 whole entry): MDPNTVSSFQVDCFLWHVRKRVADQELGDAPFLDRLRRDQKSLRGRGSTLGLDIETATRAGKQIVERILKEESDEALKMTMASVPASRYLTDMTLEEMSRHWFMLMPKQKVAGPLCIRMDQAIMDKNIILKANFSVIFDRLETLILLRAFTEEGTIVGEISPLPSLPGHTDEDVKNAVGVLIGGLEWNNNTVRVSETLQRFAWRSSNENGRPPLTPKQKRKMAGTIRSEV
Neuropeptide Y receptor type 2, sequence (P49146 whole entry): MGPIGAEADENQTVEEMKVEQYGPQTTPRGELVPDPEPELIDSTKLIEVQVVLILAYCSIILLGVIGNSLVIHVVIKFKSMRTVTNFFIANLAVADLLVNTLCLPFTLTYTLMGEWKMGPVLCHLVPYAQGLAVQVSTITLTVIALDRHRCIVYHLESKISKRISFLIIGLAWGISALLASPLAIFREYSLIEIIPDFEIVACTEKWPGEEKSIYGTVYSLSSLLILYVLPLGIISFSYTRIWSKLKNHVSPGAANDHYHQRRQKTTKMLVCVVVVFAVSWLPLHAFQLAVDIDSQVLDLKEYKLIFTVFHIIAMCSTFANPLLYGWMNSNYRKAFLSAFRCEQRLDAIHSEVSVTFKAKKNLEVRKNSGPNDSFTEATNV
Neuropeptide Y receptor type 1, sequence (P25929 whole entry): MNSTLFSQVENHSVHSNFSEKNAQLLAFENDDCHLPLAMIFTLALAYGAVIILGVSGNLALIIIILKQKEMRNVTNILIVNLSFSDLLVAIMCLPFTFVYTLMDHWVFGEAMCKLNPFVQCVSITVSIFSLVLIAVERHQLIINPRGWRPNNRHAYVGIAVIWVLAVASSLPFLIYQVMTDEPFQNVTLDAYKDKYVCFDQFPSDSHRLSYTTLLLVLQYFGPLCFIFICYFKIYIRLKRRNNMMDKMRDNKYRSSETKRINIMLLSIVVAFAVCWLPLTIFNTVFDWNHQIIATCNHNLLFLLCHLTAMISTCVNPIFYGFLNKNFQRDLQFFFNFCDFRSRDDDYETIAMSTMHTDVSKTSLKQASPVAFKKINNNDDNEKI

## Cc1ccc(NC2=NC(=O)/C(=C/c3cn(C)c4ccccc34)S2)cc1C
Insulin-degrading enzyme
  IC50: 18.4 µM (not active)
[1]
  CC50: 6.5 µM (active)
[2]
  IC50: 16.5 µM (not active)

## CN(C)C(=O)C(CCN1CCC(O)(c2ccc(Cl)cc2)CC1)(c1ccccc1)c1ccccc1 [LOPERAMIDE HYDROCHLORIDE]
[3]
  IC50: > 35 µM (not active)
[4]
  IC50: > 35 µM (not active)

## c1cnc2c(c1)ccc1cccnc12 [PHENANTHROLINE]
Nonstructural protein 1
  IC50: 0.902 µM (active)
[5]
  EC50: 9.41 µM (inconclusive)
[6]
  IC50: 35.2 µM (inactive)
[7]
  EC50: 7.02 µM (active)
[8]
  EC50: 6.95 µM (active)
[9]
  AC50: 7.11 µM (active)
BJ [10]
  EC50: 7.62 µM (inconclusive)
Exodeoxyribonuclease V
  IC50: 30.5 µM (inactive)
BJ [11]
  EC50: 6.14 µM (active)
BJ [12]
  EC50: 8.88 µM (inconclusive)
BJ [13]
  EC50: 5.03 µM (active)
Danio rerio
  IC50: 7.51 µM (active)
[14]
  EC50: 5.66 µM (active)
[15]
  EC50: 16.4 µM (active)
Galanin receptor type 2
  IC50: > 42 µM (not active)
